Data from publication PMC12134901, “Synthesis and characterization of thymol-derived phenoxy acetamide derivatives using DFT, molecular docking, and parasitological investigations” (Frontiers in Chemistry, 2025).
≈ marks a conversion by molar mass, not a printed value.

Experiments:
[1] = system: IL-10; experiment: Serum IL-10 in infected immunosuppressed mice (ELISA); assay type: in vivo; settings: compounds 100 mg/kg/day, NTZ 250 mg/kg/day, orally 10 days, mean ± SD
Experimental: (§1) Serum concentrations of IFN-γ, TNF-α, IL-6, and IL-10 for each group were determined using an enzyme-linked immunosorbent assay reader, following the manufacturer’s protocol.

[2] = system: TNF-α; experiment: Serum TNF-α in infected immunosuppressed mice (ELISA); assay type: in vivo; settings: compounds 100 mg/kg/day, NTZ 250 mg/kg/day, orally 10 days, mean ± SD
Experimental: as §1

[3] = system: IFN-γ; experiment: Serum IFN-γ in infected immunosuppressed mice (ELISA); assay type: in vivo; settings: compounds 100 mg/kg/day, NTZ 250 mg/kg/day, orally 10 days, mean ± SD
Experimental: as §1

[4] = system: Cryptosporidium oocysts; experiment: Oocyst shedding in feces of Cryptosporidium-infected immunosuppressed mice (modified Ziehl–Neelsen stain); assay type: in vivo; settings: compounds 100 mg/kg/day, NTZ 250 mg/kg/day, orally from 7th day post-infection for 10 days; for Shed oocysts/mg (Mean ± SD): immunosuppressed infected mice, feces 30 days post infection; for R%: reduction percent in oocyst count: vs infected non-treated G2
Excerpt: Cryptosporidium oocysts were obtained from the Parasitology Lab, Theodor Bilharz Research Institute, Giza, Egypt. Before infection, the oocysts were concentrated and counted in PBS using a hemocytometer. To maintain the organism cycle, five mice were inoculated with 3000–3500 oocysts using a tuberculin syringe in an intra-esophageal manner. ([Operario et al., 2015]).
Eighty healthy laboratory-bred adult male Swiss albino mice weighing 30–40 g were purchased from the animal house of the Faculty of Pharmacy, Pharos University. The animals were allowed to acclimatize for 1 week to the environmental conditions and housed in grouped plastic cages away from direct sunlight, under appropriate sanitary conditions and controlled temperature and humidity.
Immune suppression was induced and maintained throughout the experiment by administering dexamethasone (Dexazone, Al Kahira Pharmaceutical and Chemical Industries) through oral-gastric gavage at a dose of 0.25 mg/g/d for 14 consecutive days prior to inoculation with Cryptosporidium oocysts. ([Najoom et al., 2021]).
On day 15 of dexamethasone treatment, mice in the infected groups were inoculated with 10^4 Cryptosporidium oocysts using oral-gastric gavage. Before infection, oocysts were concentrated and counted in PBS using a hemocytometer.
Mice were distributed equally into eight groups of 10 each. At the end of the experiment, all animals were anesthetized for parasitological, ultrastructural, immunological, and biochemical studies. Mice grouping details are provided in the Supplementary Material.
On the final day of the experiment (30 days post infection), fresh fecal pellets from the infected mice in each group were collected to count the number of oocysts. Every sample was homogenized through suspension in double-distilled H2O. Subsequently, a fecal smear of 1 mg feces was prepared and stained using the modified Ziehl–Neelsen staining method. The stained fecal smear was examined microscopically, and the Cryptosporidium oocysts were counted. The number of oocysts per mg feces for each mouse was tabulated as the mean value for each group. All reported data represent the means of three independent trials.

[5] = Hemolytic activity assay (cytotoxicity on RBCs); assay type: cell-based, rat; settings: rat, washed erythrocytes (RBCs) suspended in PBS, 60 min at 37°C; for hemolysis at 60 min, 62.5 μg/mL: pH 7.4, 62.5 μg/mL; for hemolysis at 60 min, 125 μg/mL: pH 7.4, 125 μg/mL; for hemolysis at 60 min, 250 μg/mL: pH 7.4, 250 μg/mL; for hemolysis at 60 min, 500 μg/mL: pH 7.4, 500 μg/mL; for hemolysis at 60 min, 1000 μg/mL: pH 7.4, 1,000 μg/mL
Experimental: (§2) The hemolytic effect of different compounds was evaluated using an existing method. ([Diaconu et al., 2020]). One milliliter of rat blood was collected, added to a sterile, screw-top EDTA tube, and centrifuged at 3000 rpm for 20 min. The upper layer was decanted, and the erythrocytes were rinsed several times with 10 mL of cooled isotonic and sterile phosphate-buffered saline (PBS) with a pH of 7.4. The rinsed cells were re-suspended in 20 mL sterile, cold PBS. The compounds (serial dilutions of 62.5–1,000 μg/mL in DMSO) were added to the erythrocyte solution and incubated for 60 min at 37°C. After centrifugation at 3000 rpm for 10 min, the absorbance of hemoglobin in the supernatant at 540 nm was used to calculate the hemolysis rate. Triton X-100 (0.1% in PBS) was used as a positive control, and the vehicle (PBS/DMSO) was used as the negative control. The hemolysis percentage was calculated as follows: Hemolysis percentage = (Ab of sample − Ab of negative control)/(Ab of positive control–Ab of negative control) × 100.

[6] = system: IL-6; experiment: Serum IL-6 in infected immunosuppressed mice (ELISA); assay type: in vivo; settings: compounds 100 mg/kg/day, NTZ 250 mg/kg/day, orally 10 days, mean ± SD
Experimental: as §1

[7] = system: RBCs; experiment: Hemolytic activity assay (cytotoxicity on RBCs); assay type: cell-based, rat; settings: for IC50: Rattus norvegicus, read-out: IC50: sample concentration causing 50% hemolysis of RBCs, highest tested concentration 1,000 μg/mL
Experimental: as §2

[8] = system: small intestinal epithelial cells; experiment: TEM of small intestine sections of treated infected mice; assay type: in vivo
Experimental: The small intestine of each mouse was removed, cut into small pieces (1 mm^3), fixed in 2% glutaraldehyde in 0.1 M phosphate buffer, postfixed in 1% osmium tetraoxide for 2 h at 4°C, dehydrated, and embedded in Epon. Semi-thin and ultrathin sections (two samples per mouse) were prepared using an ultramicrotome. The sections were stained and analyzed using a transmission electron microscope.

Row | Structure (SMILES) | IL-10 [1] | TNF-α [2] | IFN-γ [3] | Shed oocysts/mg (Mean ± SD) [4] | R%: reduction percent in oocyst count [4] | hemolysis at 60 min, 62.5 μg/mL [5] | hemolysis at 60 min, 125 μg/mL [5] | hemolysis at 60 min, 250 μg/mL [5] | hemolysis at 60 min, 500 μg/mL [5] | hemolysis at 60 min, 1000 μg/mL [5] | IL-6 [6] | Hemolysis % ([7]; 1,000 μg/mL, 60 min at 37°C) | IC50 [7] | TEM ultrastructure of small intestine sections [8]
1 | Cc1ccc(C(C)C)c(OCC(=O)NN2C(=O)c3ccccc3C2=O)c1 [Compound 5a, N-(1,3-dioxoisoindolin-2-yl)-2-(2-isopropyl-5-methylphenoxy)acetamide] | 327.6 ± 1.34 pg/mL | 13.1 ± 0.99 pg/mL | 477.8 ± 1.61 pg/mL | 13.2 ± 1.034 oocysts/mg | 62% | 0% | 0% | 0% | 0% | 0% | 176.8 ± 0.91 pg/mL |  |  | 
2 | Cc1ccc(C(C)C)c(OCC(=O)NN2C(=O)c3ccc(C(=O)O)cc3C2=O)c1 [Compound 5b, 2-(2-(2-Isopropyl-5-methylphenoxy)acetamido)-1,3-dioxoisoindoline-5-carboxylic acid] | 387.8 ± 0.78 pg/mL | 13.7 ± 1.25 pg/mL | 494.2 ± 3.15 pg/mL | 14.7 ± 0.67 oocysts/mg | 57% | 0% | 0% | 0% | 0% | 0% | 181.7 ± 149 pg/mL |  |  | 
3 | Cc1ccc(C(C)C)c(OCC(=O)NN2C(=O)c3cccc4cccc(c34)C2=O)c1 [Compound 7a, N-(1,3-dioxo-1H-benzo[de]isoquinolin-2(3H)-yl)-2-(2-isopropyl-5-methylphenoxy) acetamide] | 434.2 ± 1.13 pg/mL | 15.9 ± 0.87 pg/mL | 608.8 ± 2.48 pg/mL | 16.8 ± 0.63 oocysts/mg | 51% | 0% | 0% | 0% | 5.02% | 6.18% | 237.4 ± 2.23 pg/mL | 6.1873% | 6750 µg/mL (≈ 16.8 mM) | 
4 | Cc1ccc(C(C)C)c(OCC(=O)NN2C(=O)c3cccc4c(N)ccc(c34)C2=O)c1 [Compound 7b, N-(6-amino-1,3-dioxo-1H-benzo[de]isoquinolin-2(3H)-yl)-2-(2-isopropyl-5-methylphenoxy)acetamide] | 277.2 ± 1.47 pg/mL | 11.8 ± 1.03 pg/mL | 415.2 ± 2.57 pg/mL | 11.5 ± 0.85 oocysts/mg | 67% | 0% | 0% | 0% | 0% | 0% | 143.1 ± 1.1 pg/mL |  |  | healthy microvilli (slightly disfigured and disarranged)
5 | Cc1ccc(C(C)C)c(OCC(=O)Nn2c(=O)c3cc4c(=O)n(NC(=O)COc5cc(C)ccc5C(C)C)c(=O)c4cc3c2=O)c1 [Compound 9, N,N'-(1,3,5,7-tetraoxopyrrolo[3,4-f]isoindole-2,6(1H,3H,5H,7H)-diyl)bis(2-(2-isopropyl-5-methylphenoxy)acetamide)] | 416.8 ± 0.63 pg/mL | 16.2 ± 1.03 pg/mL | 534.2 ± 1.26 pg/mL | 15.4 ± 0.52 oocysts/mg | 55% | 0% | 0% | 0% | 0% | 35% | 215.7 ± 1.15 pg/mL |  | 1560 µg/mL (≈ 2.48 mM) | 
6 | CC(=O)Oc1ccccc1C(=O)Nc1ncc([N+](=O)[O-])s1 [NTZ, nitazoxanide, reference compound] |  | 7.8 ± 0.91 pg/mL | 422.1 ± 3.21 pg/mL | 10.4 ± 0.51 oocysts/mg | 70% |  |  |  |  |  |  |  |  | normal ultrastructure and regularly arranged apical microvilli with oval euchromatic nuclei
